Results from patent publication US20090054403A1, “Treatment of Post-Traumatic Stress Disorder” (priority 2007, published 2009).

Legend:
[1] = tested on: dopamine and norepinephrine in the left ventricle; assay: Left ventricle catecholamines after two iv doses; assay type: in vivo, Sprague-Dawley rats; conditions: 15 mg/kg iv x2, 12 h apart, 6 h after last
[2] = Tissue and plasma compound levels in beagle dogs, 10, 30, 60 mg/kg/day; assay type: in vivo
Method: Thirty-two male beagle dogs, weighing 10-12 kg, were randomly assigned to one of the following 4 treatment groups (n=8 per group): nepicastat at 0 mg/kg/day (placebo), 10 mg/kg/day (5 mg/kg b.i.d.), 30 mg/kg (15 mg/kg b.i.d.), or 60 mg/kg/day (30 mg/kg b.i.d.). Dog numbers 1-16 were assigned as dose group A and dog numbers 17-32 as dose group B. The terminal surgery for tissue harvest was performed over 2 days with 16 animals studied per day. Two or 3 days before the first compound administration each dog was weighed and skin regions overlying both cephalic, saphenous and jugular veins were shaved. Dosing consisted of oral administration of one capsule with the second given 8-10 hr later. Dogs were dosed as scheduled on days 1-3. On day 4, prior to the AM dose, 3 ml of blood were obtained from a jugular vein for determination of baseline plasma compound levels. […]
Ventricles were homogenized in 50 mM Tris-HCl, 5 mM Na2EDTA buffer (pH 7.4 at 4° C.) using a Polytron P-10 tissue disrupter (setting 10, 2×15 second bursts). […] Aquasol scintillation fluid was added to each vial and radioactivity determined by liquid scintillation counting. Saturation binding isotherms were analyzed after first converting total ligand concentrations to free ligand concentrations (total−bound=free). […]

Cl.NCc1c[nH]c(=S)n1[C@H]1CCc2c(F)cc(F)cc2C1 [nepicastat, (S)-5-Aminomethyl-1-(5,7-difluoro-1,2,3,4-tetrahydronaphth-2-yl)-2,3-dihydro-2-thioxo-1H-imidazole hydrochloride]
decrease in norepinephrine levels, left ventricle [1]: 51% | increase in dopamine levels, left ventricle [1]: 472% | increase in dopamine/norepinephrine ratio, left ventricle [1]: 1117% | dose proportionality of concentration in plasma (Day 4) and tissue and plasma (Day 5) ([2]; 10, 30, 60 mg/kg/day, exceptions kidney medulla, plasma day 4): dose-proportional | levels in all tissues examined relative to plasma ([2]; Day 5): higher than those in plasma
